The record followed here is patent US5556751A, “Selective amplification system using Q-β replicase” (Amoco Corporation, priority 1994, dated 1996).

Assay [1] has as its target replication of MDV-1 by Qβ replicase (Escherichia virus Qbeta, UniProt P14647). The assay is described as follows: Inhibition of MDV-1 replication by dyes in linear-phase Qβ replicase reactions. It is filed as biochemical, bacteriophage Qβ. The note with it: for ability to inhibit the replication of MDV-1: linear-phase reactions, template RNA in excess over enzyme. The procedure: A number of dyes, including ethidium bromide, ethidium bromide homodimer, propidium iodide, proflavine, quinacrine, Hoescht 33258 (bis-benzamidine),dimidium bromide and acridine orange, were tested for their ability to inhibit the replication of MDV-1 in linear-phase reactions, i.e., where the template RNA is present in excess over the enzyme and the amount of replicated RNA thus increases linearly with time. […] One of the strongest inhibitors, propidium iodide, was selected for further study.

Assay [2] deals with T1, replication of wild type MDV-1 RNA by Qβ replicase (Escherichia virus Qbeta, UniProt P14647).
T1 construct: made in house
As to the kind of experiment: Effect of propidium iodide on replication of wild type MDV-1 RNA in a Qβ replicase preparation (32P-CTP incorporation time course). Type of assay: biochemical, bacteriophage Qβ. The procedure:
Propidium iodide was tested for its effect on the replication of wild type RNA in a preparation of Qβ replicase. Propidium iodide in an amount of either 0, 1, or 3 μg/ml was added to a reaction buffer containing: 90 mM Tris HCl (pH7.5), 14 mM MgCl2, 0.4 mM each ATP, GTP, UTP, and CTP, and 10 μCi α- ^32 P-CTP. The Qβ replicase reaction was initiated in each sample by addition of 1.2 μg of Qβ replicase prepared according to the method of Eoyang and August, (1972), ibid. Aliquots of the reaction mixture were withdrawn every 5 minutes and spotted on DE81 filters (Schleicher & Schuell Inc., Keene, N.H.). The spotted filters were washed repeatedly with 0.5M NaPO4, (pH7.0) to remove unincorporated nucleotide. The filters were counted for Cerenkov radiation by standard procedures in a scintillation counter. Addition of propidium iodide delayed the point in time at which levels of incorporation resulting from the replication of wild type MDV-1 template became detectable.

As for `C[n+]1c(-c2ccccc2)c2cc(N)ccc2c2ccc(N)cc21` [dimidium bromide], the “ability to inhibit the replication of MDV-1” value in assay [1] is “inhibited”. With `CN1CCN(c2ccc3[nH]c(-c4ccc5[nH]c(-c6ccc(O)cc6)nc5c4)nc3c2)CC1` [Hoescht 33258, Hoescht 33258 (bis-benzamidine)], the “ability to inhibit the replication of MDV-1” value in assay [1] is on record as “except Hoescht 33258, inhibited”. As to `Cl.Cl.Nc1ccc2c(c1)c(-c1ccccc1)[n+](CCCNCCNCCC[n+]1c(-c3ccccc3)c3cc(N)ccc3c3ccc(N)cc31)c1cc(N)ccc21.[Cl-].[Cl-]` [ethidium bromide homodimer], the “ability to inhibit the replication of MDV-1” value in assay [1] is recorded as “inhibited”. Consider `CC[N+](C)(CC)CCC[n+]1c(-c2ccccc2)c2cc(N)ccc2c2ccc(N)cc21` [propidium iodide], for which the inhibition at 3 µg/mL in assay [1] (dye concentration about 3μg/ml) was 70%. Also, in assay [1], the “ability to inhibit the replication of MDV-1” value is “inhibited”. Also, in assay [2] (propidium iodide 1 μg/ml, read-out: inhibition of the rate of replication in the geometric phase), the inhibition at 1 µg/mL was in the range of 20 to 50%. For the same compound, the “delay of the appearance of replicated product” value in assay [2] (propidium iodide 1 μg/ml, wild type MDV-1 template) was 2 to 5 min. Besides, the “reduction in the rate of replication” value in assay [2] (propidium iodide 3μg/ml) is reported as about 3 fold. Also, the “delay of the appearance of product” value in assay [2] (propidium iodide 3μg/ml, wild type MDV-1 template) is reported as “about 20 minutes”. As to `Nc1ccc2cc3ccc(N)cc3nc2c1` [proflavine], in assay [1], the “ability to inhibit the replication of MDV-1” value is “inhibited”. On the same count and under the same terms, then `CN(C)c1ccc2cc3ccc(N(C)C)cc3nc2c1` [acridine orange], with “inhibited”; and `CCN(CC)CCCC(C)Nc1c2ccc(Cl)cc2nc2ccc(OC)cc12` (stereo not shown) [quinacrine], with “inhibited”.

Turning to `CC[n+]1c(-c2ccccc2)c2cc(N)ccc2c2ccc(N)cc21` [ethidium bromide], the “ability to inhibit the replication of MDV-1” value in assay [1] is “inhibited”.
